In US20230190741A1, “LONG-LASTING REABSORBABLE SUBCUTANEOUS IMPLANT WITH SUSTAINED RELEASE OF PRE-CONCENTRATED PHARMACOLOGICALLY ACTIVE SUBSTANCE IN POLYMER FOR THE TREATMENT OF ERECTILE DYSFUNCTION AND BENIGN PROSTATIC HYPERPLASIA” (priority 2020, published 2023):

What was measured:
[1] = oral administration; cited from earlier work
[2] = half-life of the oral drug; type: in vivo; conditions: tadalafil vs sildenafil
[3] = tested on: erectile dysfunction; conditions: injection 10 mcg or 20 mcg applied directly to the penis, cited from earlier work

Row | half-life relative to half-life of sildenafil [2] [times] | SMILES | loss of drug ingested (first-pass metabolism plus absorptive process) [1] [%] | duration of effect ([3]; depending on the patient) [h] | time until effect after application [3] [min]
1 | 4.38 | CN1CC(=O)N2[C@H](c3ccc4c(c3)OCO4)c3[nH]c4ccccc4c3C[C@@H]2C1=O [tadalafil] | ≤ 50 | – | –
2 | – | CCCCC[C@H](O)/C=C/[C@H]1[C@H](O)CC(=O)[C@@H]1CCCCCCC(=O)O [alprostadil] | – | ≤ 2 | 20
